Assay results published in US20250215030A1, “STAT MODULATORS AND USES THEREOF” (Recludix Pharma, Inc., priority 2022, published 2025).

What was measured:
pSTAT3 (pY705-STAT3) = target: T1, pSTAT3 (pY705-STAT3) (Homo sapiens, UniProt P40763); test: MSD-pSTAT-PBMC Assay (pSTAT3, IL-6 stimulated); type: cell-based; details: PBMC, compound 3 hrs, then 10 ng/mL IL-6 for 10 min; MSD pY705-STAT3; read-out: pSTAT3
T1 construct: host or cells: cryopreserved PBMC
Outline: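 Phospho-STAT levels captured on anti-STAT3 or anti-STAT6 plates and detected with anti-pY705 or anti-pY641 antibodies (MSD read-out). Cryopreserved human PBMCs received compound for 3 h before a 10 min pulse of IL-6 (10 ng/mL, STAT3) or IL-4 (1 ng/mL, STAT6). IC50 fitted after unstimulated-background subtraction and DMSO normalization.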

pSTAT6 (pY641-STAT6) = target: T2, pSTAT6 (pY641-STAT6) (Homo sapiens, UniProt P42226); test: MSD-pSTAT-PBMC Assay (pSTAT6, IL-4 stimulated); type: cell-based; details: compound 3 hrs, then 1 ng/mL IL-4 for 10 min
T2 construct: host or cells: cryopreserved PBMC
T2 sequence (P42226 1-847): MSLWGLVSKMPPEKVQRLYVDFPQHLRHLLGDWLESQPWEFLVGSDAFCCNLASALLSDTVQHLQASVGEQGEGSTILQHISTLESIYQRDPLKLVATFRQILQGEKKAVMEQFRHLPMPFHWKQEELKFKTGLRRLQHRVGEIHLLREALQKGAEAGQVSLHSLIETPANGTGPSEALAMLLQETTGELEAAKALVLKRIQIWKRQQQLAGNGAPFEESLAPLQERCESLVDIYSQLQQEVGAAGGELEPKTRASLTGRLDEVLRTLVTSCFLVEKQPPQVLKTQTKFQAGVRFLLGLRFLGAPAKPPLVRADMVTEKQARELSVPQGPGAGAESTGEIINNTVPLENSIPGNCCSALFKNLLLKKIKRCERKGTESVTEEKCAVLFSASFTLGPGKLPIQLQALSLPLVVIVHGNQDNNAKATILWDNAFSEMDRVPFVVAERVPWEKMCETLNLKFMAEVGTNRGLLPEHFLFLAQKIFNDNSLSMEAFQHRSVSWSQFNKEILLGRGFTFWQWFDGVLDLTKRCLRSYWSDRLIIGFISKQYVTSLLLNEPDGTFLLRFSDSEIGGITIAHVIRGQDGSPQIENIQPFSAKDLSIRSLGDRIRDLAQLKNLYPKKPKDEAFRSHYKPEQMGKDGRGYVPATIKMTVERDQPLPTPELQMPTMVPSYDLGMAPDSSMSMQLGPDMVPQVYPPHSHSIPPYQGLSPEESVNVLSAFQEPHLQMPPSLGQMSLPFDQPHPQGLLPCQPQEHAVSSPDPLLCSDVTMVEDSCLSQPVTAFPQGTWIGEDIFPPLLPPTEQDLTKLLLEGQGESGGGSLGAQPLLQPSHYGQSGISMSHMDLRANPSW
Source text: Cryopreserved Peripheral Blood Mononuclear Cells (PBMC) are from AllCells. Recombinant Human IL-4 and IL-6 are from Peprotech. Mouse monoclonal anti-STAT3 antibody, rabbit monoclonal anti-pY705-STAT3 antibody, rabbit monoclonal Anti-pY641-STAT6 antibody, and lysis buffer are from Cell Signaling Technology (CST). Mouse monoclonal anti-STAT6 antibody is from BioLegend. Assay plates, blocker, and anti-rabbit secondary antibody are from Meso Scale Discovery (MSD).
Cryopreserved PBMCs were thawed out and allowed to recover overnight in IMDM+10% heat-inactivated FBS prior to plating 50,000 (STAT3) or 25,000 (STAT6) cells per well in 96-well U-bottom tissue culture plates. Cells were treated with compound for 3 hrs, then stimulated with 10 ng/mL IL-6 (STAT3) or 1 ng/mL IL-4 (STAT6) for 10 min. Cells were then spun down and washed with ice-cold PBS prior to lysing the cell pellet with 1× lysis buffer (CST) with 1× HALT protease and phosphatase inhibitor cocktail (Thermo). Lysates were transferred to and incubated overnight at 4° C. with shaking in QuickPlex 96-well high bind assay plates (MSD) pre-coated overnight with 30 μL per well of 0.6 μg/mL mouse monoclonal anti-STAT3 antibody (STAT3) or 2 μg/mL mouse monoclonal anti-STAT6 antibody (STAT6) in 1×PBS, and pre-blocked for 1 hour with 3% Blocker-A (MSD). Captured protein in the assay plates were then washed and probed with 25 μL per well of 0.25 μg/ml rabbit monoclonal anti-pY705-STAT3 antibody (STAT3) or 0.18 μg/ml rabbit monoclonal Anti-pY641-STAT6 antibody (STAT6) in 1% Blocker-A for 1 hour at room temperature with shaking, then washed and probed with 25 ul per well of 1 ug/mi Sulfo-TAG Labeled Goat Anti-Rabbit Antibody (MSD) in 1% Blocker-A for 1 hour at room temperature with shaking. Assay plates were then washed and 150 μL of 1× Read Buffer-T (MSD) was added to each well prior to reading on an SQ120 MSD Plate Reader. Assay signal from each sample was subtracted by the signal from unstimulated control wells and normalized to DMSO control wells. IC50 values were calculated using Graph Pad Prism Dose-Response Nonlinear Regression with variable slope. For both pSTAT3 and pSTAT6 A=≤100 nM; B=>100-1000 nM; C=>1000-3000 nM; and D=>3 μM.

T1 sequence (P40763 whole entry): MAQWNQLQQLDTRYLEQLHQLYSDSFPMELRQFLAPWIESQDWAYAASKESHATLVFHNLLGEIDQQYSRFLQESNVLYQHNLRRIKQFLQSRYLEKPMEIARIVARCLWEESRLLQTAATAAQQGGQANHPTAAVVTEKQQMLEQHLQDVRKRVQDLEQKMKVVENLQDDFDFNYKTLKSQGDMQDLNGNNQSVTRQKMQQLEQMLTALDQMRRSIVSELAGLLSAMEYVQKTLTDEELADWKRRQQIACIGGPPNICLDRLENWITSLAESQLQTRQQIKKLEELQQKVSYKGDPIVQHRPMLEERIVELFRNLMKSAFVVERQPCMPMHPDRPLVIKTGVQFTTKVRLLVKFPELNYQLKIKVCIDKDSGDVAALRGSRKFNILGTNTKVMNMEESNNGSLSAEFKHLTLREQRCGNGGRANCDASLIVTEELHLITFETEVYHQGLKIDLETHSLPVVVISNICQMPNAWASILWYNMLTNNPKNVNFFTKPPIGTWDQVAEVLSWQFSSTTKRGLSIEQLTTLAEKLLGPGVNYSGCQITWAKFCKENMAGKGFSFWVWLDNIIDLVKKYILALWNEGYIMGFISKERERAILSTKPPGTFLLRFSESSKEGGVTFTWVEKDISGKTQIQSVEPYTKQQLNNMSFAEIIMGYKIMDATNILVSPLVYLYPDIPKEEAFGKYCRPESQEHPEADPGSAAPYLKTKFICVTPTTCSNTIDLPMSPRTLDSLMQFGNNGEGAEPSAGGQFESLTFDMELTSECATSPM

Row | Structure (SMILES) | IC50 (pSTAT3 (pY705-STAT3)) | IC50 (pSTAT6 (pY641-STAT6))
1 | CC(C)OC(=O)OCOP(=O)(OCOC(=O)OC(C)C)[C@@H](F)c1ccc2sc(C(=O)N[C@H]3C[C@H]4C[C@H]4C[C@H]4CC[C@@H](C(=O)N5CC(c6cccnc6)C5)N4C3=O)cc2c1 [Compound 152, ((((R)-fluoro(2-(((3S,6S,7aR, 8aS,9aR)-5-oxo-3-(3-(pyridin-3-yl)azetidine-1-carbonyl)decahydro-1H-cyclopropa[d]pyrrolo[1,2-a]azocin-6-yl)carbamoyl)benzo[b]thiophen-5-yl)methyl)phosphoryl)bis(oxy)) bis(methylene) diisopropyl bis(carbonate)] | < 0.1 µM | 0.1 to 1 µM
2 | CC(C)OC(=O)[C@H](C)NP(=O)(Cc1ccc2sc(C(=O)N[C@H]3C[C@@H]4C[C@@H]4C[C@H]4CC[C@@H](C(=O)N5CC(C(=O)N6CCOCC6)C5)N4C3=O)cc2c1)Oc1ccccc1 (stereo partly drawn) [Compound 154, isopropyl (((2-(((3S,6S,7aS, 8aR,9aR)-3-(3-(morpholine-4-carbonyl)azetidine-1-carbonyl)-5-oxodecahydro-1H-cyclopropa[d]pyrrolo[1,2-a]azocin-6-yl)carbamoyl)benzo[b]thiophen-5-yl)methyl) (phenoxy) (phosphoryl)-L-alaninate] | 0.1 to 1 µM | > 3 µM
3 | CC(C)(C)C(=O)OCOP(=O)(Cc1ccc2sc(C(=O)N[C@H]3C[C@H]4C[C@H]4C[C@H]4CC[C@@H](C(=O)N5CC(c6ccccn6)C5)N4C3=O)cc2c1)OCOC(=O)C(C)(C)C [Compound 155, ((((2-(((3S,6S,7aR, 8aS,9aR)-5-oxo-3-(3-(pyridin-2-yl)azetidine-1-carbonyl)decahydro-1H-cyclopropa[d]pyrrolo[1,2-a]azocin-6-yl)carbamoyl)benzo[b]thiophen-5-yl)methyl)phosphoryl)bis(oxy)) bis(methylene) bis(2,2-dimethyl-pronanoate)] | < 0.1 µM | 1 to 3 µM
4 | CC(C)(C)C(=O)OCOP(=O)(Cc1ccc2sc(C(=O)N[C@H]3C[C@@H]4C[C@@H]4C[C@H]4CC[C@@H](C(=O)N5CC(n6ccnc6)C5)N4C3=O)cc2c1)OCOC(=O)C(C)(C)C [Compound 156, ((((2-(((3S,6S,7aS, 8aR,9aR)-3-(3-(1H-imidazol-1-yl)azetidine-1-carbonyl)-5-oxodecahydro-1H-cyclopropa[d]pyrrolo[1,2-a]azocin-6-yl)carbamoyl)benzo[b]thiophen-5-yl)methyl)phosphoryl)bis(oxy)) bis(methylene) bis(2,2-dimethyl-propanoate)] | < 0.1 µM | > 3 µM
5 | CC(C)OC(=O)OCOP(=O)(Cc1ccc2sc(C(=O)N[C@H]3C[C@@H]4C[C@@H]4C[C@H]4CC[C@@H](C(=O)N5CC(n6ccnc6)C5)N4C3=O)cc2c1)OCOC(=O)OC(C)C [Compound 157, ((((2-(((3S,6S,7aS, 8aR,9aR)-3-(3-(1H-imidazol-1-yl)azetidine-1-carbonyl)-5-oxodecahydro-1H-cyclopropa[d]pyrrolo[1,2-a]azocin-6-yl)carbamoyl)benzo[b]thiophen-5-yl)methyl)phosphoryl)bis(oxy)) bis(methylene) diisopropyl bis(carbonate)] | < 0.1 µM | > 3 µM
6 | CCCC(=O)SCCOP(=O)(Cc1ccc2sc(C(=O)N[C@H]3C[C@@H]4C[C@@H]4C[C@H]4CC[C@@H](C(=O)N5CC(n6ccnc6)C5)N4C3=O)cc2c1)OCCSC(=O)CCC [Compound 158, S,S′-(((((2-(((3S,6S,7aS, 8aR,9aR)-3-(3-(1H-imidazol-1-yl)azetidine-1-carbonyl)-5-oxodecahydro-1H-cyclopropa[d]pyrrolo[1,2-a]azocin-6-yl)carbamoyl)benzo[b]thiophen-5-yl)methyl)phosphoryl)bis(oxy))bis(ethane-2,1-diyl)) dibutanethioate] | 0.1 to 1 µM | > 3 µM
7 | COCC(C)(C)OC(=O)OCOP(=O)(OCOC(=O)OC(C)(C)COC)C(F)(F)c1ccc2sc(C(=O)N[C@H]3C[C@@H]4C[C@@H]4C[C@H]4CC[C@@H](C(=O)N5CC(C(=O)N6CCOCC6)C5)N4C3=O)cc2c1 [Compound 161, (((difluoro(2-(((3S,6S,7aS, 8aR,9aR)-3-(3-(morpholine-4-carbonyl)azetidine-1-carbonyl)-5-oxodecahydro-1H-cyclopropa [d]pyrrolo[1,2-a]azocin-6-yl)carbamoyl)benzo[b]thiophen-5-yl)methyl)phosphoryl)bis(oxy)) bis(methylene) bis(1-methoxy-2-methylpropan-2-yl) bis(carbonate)] | < 0.1 µM | > 3 µM
8 | O=C(OCOP(=O)(OCOC(=O)OC1CCOCC1)C(F)(F)c1ccc2sc(C(=O)N[C@H]3C[C@@H]4C[C@@H]4C[C@H]4CC[C@@H](C(=O)N5CC(C(=O)N6CCOCC6)C5)N4C3=O)cc2c1)OC1CCOCC1 [Compound 162, (((difluoro(2-(((3S,6S,7aS, 8aR,9aR)-3-(3-(morpholine-4-carbonyl)azetidine-1-carbonyl)-5-oxodecahydro-1H-cyclopropa [d]pyrrolo[1,2-a]azocin-6-yl)carbamoyl)benzo[b]thiophen-5-yl)methyl)phosphoryl)bis(oxy)) bis(methylene) bis(tetrahydro-2H-pyran-4-yl) bis(carbonate)] | 0.1 to 1 µM | > 3 µM
9 | CC(C)OC(=O)[C@H](Cc1ccccc1)NP(=O)(Oc1ccccc1)C(F)(F)c1ccc2sc(C(=O)N[C@H]3C[C@@H]4C[C@@H]4C[C@H]4CC[C@@H](C(=O)N5CC(C(=O)N6CCOCC6)C5)N4C3=O)cc2c1 (stereo partly drawn) [Compound 165, isopropyl ((difluoro(2-(((3S,6S,7aS, 8aR,9aR)-3-(3-(morpholine-4-carbonyl)azetidine-1-carbonyl)-5-oxodecahydro-1H-cyclopropa[d]pyrrolo[1,2-a]azocin-6-yl)carbamoyl)benzo[b]thiophen-5-yl)methyl) (phenoxy)phosphoryl)-L-phenylalaninate] | 1 to 3 µM | > 3 µM
10 | O=C(OCOP(=O)(OCOC(=O)OC1CCOCC1)C(F)(F)c1ccc2sc(C(=O)N[C@H]3C[C@H]4C[C@H]4C[C@H]4CC[C@@H](C(=O)N5CC(c6cccnc6)C5)N4C3=O)cc2c1)OC1CCOCC1 [Compound 166, (((difluoro(2-(((3S,6S,7aR, 8aS,9aR)-5-oxo-3-(3-(pyridin-3-yl)azetidine-1-carbonyl)decahydro-1H-cyclopropa[d]pyrrolo[1,2-a]azocin-6-yl)carbamoyl)benzo[b]thiophen-5-yl)methyl)phosphoryl)bis(oxy)) bis(methylene) bis(tetrahydro-2H-pyran-4-yl) bis(carbonate)] | < 0.1 µM | > 3 µM
